Measured values taken from PMC10589313 (Nature Communications, 2023).
“And” between values parts separate entries of the source, which are not always exact repeats. Identical values can stand only once.

Legend:
human H4R Q347G mutant = target: T1, human H4R Q347G mutant (Homo sapiens, UniProt Q9H3N8, Q347G); experiment: TGFα shedding assay, H4R Q347G mutant; assay type: cell-based
T1 construct: a mutant H4R (human, full-length, and untagged); expressed in transfected cells; host or cells: HEK293A
T1 sequence (Q9H3N8 whole entry Q347G): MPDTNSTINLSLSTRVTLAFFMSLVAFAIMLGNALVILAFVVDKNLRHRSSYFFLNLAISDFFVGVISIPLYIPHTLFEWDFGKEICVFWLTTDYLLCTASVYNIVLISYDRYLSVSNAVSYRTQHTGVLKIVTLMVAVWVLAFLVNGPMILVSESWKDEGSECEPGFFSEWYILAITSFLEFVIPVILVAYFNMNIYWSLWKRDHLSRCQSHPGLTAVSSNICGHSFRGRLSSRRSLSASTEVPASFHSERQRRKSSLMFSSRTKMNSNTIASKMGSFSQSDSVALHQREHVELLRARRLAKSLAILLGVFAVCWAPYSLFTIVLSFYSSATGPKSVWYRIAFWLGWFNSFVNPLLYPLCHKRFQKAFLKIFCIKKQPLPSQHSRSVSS
Method: (§1) The mutants were prepared using the primers listed in Supplementary Table 2. […] The chimeric Gαq/i1 subunit comprises the Gαq backbone and Gαi1-derived six-amino acid C-terminus and couples with Gi-coupled H4R but induces a Gq-dependent TGFα shedding response. After culturing for 1 day and incubating at 37 °C in a 5% CO2 incubator, the transfected cells were harvested by trypsinization, neutralized with Dulbecco’s modified Eagle’s medium containing 10% fetal calf serum (FCS) and penicillin–streptomycin, washed once with Hank’s balanced salt solution (HBSS) containing 5 mM of HEPES (pH 7.4), and resuspended in 6 mL of the HEPES-containing HBSS. The cell suspension was seeded into a 96-well plate at a volume of […] per well (typically, 48 wells per transfected cells) and incubated for 30 min in the CO2 incubator. Test compounds (10×, diluted in 0.01% BSA and 5 mM of HEPES-containing HBSS, […] volume) were added to duplicate wells and incubated for 1 h. After centrifugation, the conditioned medium ([…]) was transferred to an empty 96-well plate. AP reaction solution [10 mM of p-nitrophenylphosphate (p-NPP), 120 mM of Tris–HCl (pH 9.5), 40 mM of NaCl, and 10 mM of MgCl2] was dispensed into the cell culture plates and plates containing conditioned media ([…]). Absorbance was measured at 405 nm before and after a 1-h incubation period at 25 °C using a microplate reader (iMark™ Microplate Absorbance Reader; BioRad). Ligand-induced AP-TGFα release was calculated as previously described. The vehicle-treated AP-TGFα release signal was set as a baseline unless otherwise specified. AP-TGFα release signals were fitted with a four-parameter sigmoidal concentration-response curve, from which EC50 and Emax values were obtained, using GraphPad Prism 9 software (GraphPad Prism). Negative values of logarithmically transformed EC50 values (pEC50) were used to calculate the mean and standard error of independent experiments.
(§2) All functional study data were analyzed using Prism 9 (GraphPad) and are presented as mean ± standard error of the mean (SEM) of three independent experiments. Statistical analyses were performed using Prism 9 (GraphPad) with one-way analysis of variance followed by Dunnett’s post-hoc test. Values with p < 0.05 are considered statistically significant.

human H4R Y95A mutant = target: T2, human H4R Y95A mutant (Homo sapiens, UniProt Q9H3N8, Y95A); experiment: TGFα shedding assay, H4R Y95A mutant; assay type: cell-based
T2 construct: a mutant H4R (human, full-length, and untagged); expressed in transfected cells; host or cells: HEK293A
T2 sequence (Q9H3N8 whole entry Y95A): as the sequence (Q9H3N8 whole entry Q347G) above, with Y95A, G347Q counted along it
Method: as §1
(§3) All functional study data were analyzed using Prism 9 (GraphPad) and are presented as mean ± standard error of the mean (SEM) of three independent experiments. […]

human H4R T99A mutant = target: T3, human H4R T99A mutant (Homo sapiens, UniProt Q9H3N8, T99A); experiment: TGFα shedding assay, H4R T99A mutant; assay type: cell-based
T3 construct: a mutant H4R (human, full-length, and untagged); expressed in transfected cells; host or cells: HEK293A
T3 sequence (Q9H3N8 whole entry T99A): as the sequence (Q9H3N8 whole entry Q347G) above, with T99A, G347Q counted along it
Method: as §1, §2

H4R = details: read-out: binding affinity (Ki) for H4R; cited from earlier work
human wild-type H4R = target: T4, human wild-type H4R (Homo sapiens, UniProt Q9H3N8); experiment: TGFα shedding assay, wild-type H4R; assay type: cell-based
T4 construct: a mutant H4R (human, full-length, and untagged); expressed in transfected cells; host or cells: HEK293A
T4 sequence (Q9H3N8 whole entry): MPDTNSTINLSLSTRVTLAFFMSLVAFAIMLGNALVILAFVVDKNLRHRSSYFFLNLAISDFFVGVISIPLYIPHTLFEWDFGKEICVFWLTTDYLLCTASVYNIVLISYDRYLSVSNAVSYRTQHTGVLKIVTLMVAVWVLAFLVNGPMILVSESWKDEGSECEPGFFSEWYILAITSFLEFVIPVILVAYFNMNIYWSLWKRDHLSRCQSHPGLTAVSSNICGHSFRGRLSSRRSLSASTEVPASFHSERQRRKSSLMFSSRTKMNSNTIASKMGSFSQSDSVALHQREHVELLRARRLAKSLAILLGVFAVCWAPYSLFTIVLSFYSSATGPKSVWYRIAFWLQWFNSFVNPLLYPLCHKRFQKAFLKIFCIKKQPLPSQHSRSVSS
Method: as §1, §2

human H4R N147Y mutant = target: T5, human H4R N147Y mutant (Homo sapiens, UniProt Q9H3N8, N147Y); experiment: TGFα shedding assay, H4R N147Y mutant; assay type: cell-based; details: for EC50: EC50 (nM)
T5 construct: a mutant H4R (human, full-length, and untagged); expressed in transfected cells; host or cells: HEK293A
T5 sequence (Q9H3N8 whole entry N147Y): as the sequence (Q9H3N8 whole entry Q347G) above, with N147Y, G347Q counted along it
Method: as §1, §2

human H4R F344A mutant = target: T6, human H4R F344A mutant (Homo sapiens, UniProt Q9H3N8, F344A); experiment: TGFα shedding assay, H4R F344A mutant; assay type: cell-based
T6 construct: a mutant H4R (human, full-length, and untagged); expressed in transfected cells; host or cells: HEK293A
T6 sequence (Q9H3N8 whole entry F344A): as the sequence (Q9H3N8 whole entry Q347G) above, with F344A, G347Q counted along it
Method: The mutants were prepared using the primers listed in Supplementary Table 2. […] The chimeric Gαq/i1 subunit comprises the Gαq backbone and Gαi1-derived six-amino acid C-terminus and couples with Gi-coupled H4R but induces a Gq-dependent TGFα shedding response. After culturing for 1 day and incubating at 37 °C in a 5% CO2 incubator, the transfected cells were harvested by trypsinization, neutralized with Dulbecco’s modified Eagle’s medium containing 10% fetal calf serum (FCS) and penicillin–streptomycin, washed once with Hank’s balanced salt solution (HBSS) containing 5 mM of HEPES (pH 7.4), and resuspended in 6 mL of the HEPES-containing HBSS. The cell suspension was seeded into a 96-well plate at a volume of […] per well (typically, 48 wells per transfected cells) and incubated for 30 min in the CO2 incubator. Test compounds (10×, diluted in 0.01% BSA and 5 mM of HEPES-containing HBSS, […] volume) were added to duplicate wells and incubated for 1 h. […] Absorbance was measured at 405 nm before and after a 1-h incubation period at 25 °C using a microplate reader (iMark™ Microplate Absorbance Reader; BioRad). Ligand-induced AP-TGFα release was calculated as previously described. […]
as §3

human H4R C98A mutant = target: T7, human H4R C98A mutant (Homo sapiens, UniProt Q9H3N8, C98A); experiment: TGFα shedding assay, H4R C98A mutant; assay type: cell-based
T7 construct: a mutant H4R (human, full-length, and untagged); expressed in transfected cells; host or cells: HEK293A
T7 sequence (Q9H3N8 whole entry C98A): as the sequence (Q9H3N8 whole entry Q347G) above, with C98A, G347Q counted along it
Method: as §1, §2

[1] = Imetit (M) -5 (log concentration), raw replicate values

N=C(N)SCCc1cnc[nH]1 [Imetit, imetit]
EC50 (human H4R Q347G mutant; pEC50, Q347G, single experiments, source data Figure 4e-f): 12.3 nM
EC50 (human H4R Q347G mutant; pEC50 mean ± SEM, Q347G mutant): 4.68 nM
Emax (human H4R Q347G mutant; read-out: Emax (%) mean ± SEM): 12.9 ± 1.22%
EC50 (human H4R Y95A mutant): > 10000 nM
Shedding assay response, Y95A (human H4R Y95A mutant; [1]): 0.2008 and 4.141 and 6.475 and 5.892 and -1.081 and 3.761 and 1.333 and 3.151 and 12.3655
EC50 (human H4R T99A mutant): 76 nM
Shedding assay response, T99A (human H4R T99A mutant; [1]): 14.3742 and 14.7391 and 15.3687 and 10.9344 and 9.709 and 12.0103 and 13.6177 and 15.7879 and 16.7579
fold of change (human H4R T99A mutant; T99A mutant, EC50 relative to WT): 2.5 fold
Emax (human H4R T99A mutant; read-out: Emax (%) mean ± SEM): 13.7 ± 1.67%
Ki (H4R): 2.7 nM
EC50 (human wild-type H4R; EC50 (nM), WT H4R): 29.9 nM
EC50 (human wild-type H4R; EC50 (nM), hH4R, single experiments (3 columns), source data Figure 4e-f): 30.7 nM and 23 nM
Shedding assay response, WT (human wild-type H4R; [1]): 14.3865 and 12.6364 and 12.8296 and 15.366 and 17.4678 and 18.6444 and 14.3694 and 15.3398 and 17.1099
fold of change (human wild-type H4R; WT H4R, EC50 relative to WT): 1 fold
EC50 (human wild-type H4R; pEC50, hH4R, single experiments (3 columns), source data Figure 4e-f): 35.8 nM and 30.7 nM
EC50 (human wild-type H4R; pEC50 mean ± SEM, WT H4R, three independent experiments): 29.5 nM
Emax (human wild-type H4R; read-out: Emax (%) mean ± SEM): 14.9 ± 1.19%
EC50 (human H4R N147Y mutant; N147Y mutant): 319 nM
EC50 (human H4R N147Y mutant; N147Y, single experiments, source data Figure 4e-f): 632 nM and 127 nM and 200 nM
Shedding assay response, N147Y (human H4R N147Y mutant; [1]): 5.667 and 6.627 and 11.6194 and 11.6248 and 10.5662 and 9.653 and 14.7457 and 12.0475 and 16.0734
fold of change (human H4R N147Y mutant; N147Y mutant, EC50 relative to WT): 10.7 fold
Emax (human H4R N147Y mutant; read-out: Emax (%) mean ± SEM): 11.1 ± 1.47%
EC50 (human H4R F344A mutant): > 10000 nM
Shedding assay response, F344A (human H4R F344A mutant; [1]): 3.594 and 4.917 and 1.113 and -1.672 and 3.266 and -0.2412 and 0.127 and -2.198 and -1.529
EC50 (human H4R C98A mutant; C98A mutant): 479 nM
fold of change (human H4R C98A mutant; C98A mutant, EC50 relative to WT): 16.3 fold
EC50 (human H4R C98A mutant; EC50 (nM), C98A mutant): 486 nM
Shedding assay response, C98A (human H4R C98A mutant; [1]): 13.5967 and 12.9858 and 12.6952 and 16.5163 and 19.8944 and 18.7443 and 18.3535 and 16.3047 and 17.1057
Emax (human H4R C98A mutant; read-out: Emax (%) mean ± SEM): 17.1 ± 1.72%
